In the assay the test system is L1210 leukemia ip in BDF1 mice, survival T/C. The experiment in a line: NCI In Vivo Anticancer Drug Screen. Data for tumor model L1210 Leukemia (intraperitoneal) in B6D2F1 (BDF1) mice. The following applies: endpoint: mean survival time, higher = longer survival. The essentials:
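Mice bearing the transplanted tumor received compound or vehicle. Survival of the treated group was divided by that of the vehicle-treated control group to give the ratio.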

[1] abbreviates: dose: 100.0 mg/kg/injection, schedule: Q01DX001 (ip), vehicle: saline.
[2] abbreviates: dose: 100.0 mg/kg/injection, schedule: Q04DX003 (ip), vehicle: saline.
The mark [3] stands for this setting: dose: 200.0 mg/kg/injection, schedule: Q01DX001 (ip), vehicle: saline.
The mark [4] stands for this setting: dose: 200.0 mg/kg/injection, schedule: Q04DX003 (ip), vehicle: saline.
The mark [5] stands for this setting: dose: 400.0 mg/kg/injection, schedule: Q01DX001 (ip), vehicle: saline.
Setting [6] is: dose: 400.0 mg/kg/injection, schedule: Q04DX003 (ip), vehicle: saline.
Where [7] appears, read: dose: 100.0 mg/kg/injection, schedule: Q01DX009 (ip), vehicle: Klucel (hydroxypropylcellulose) (HPC).
[8] abbreviates: dose: 100.0 mg/kg/injection, schedule: Q04DX002 (ip), vehicle: Klucel (hydroxypropylcellulose) (HPC).
Setting [9] is: dose: 200.0 mg/kg/injection, schedule: Q01DX009 (ip), vehicle: Klucel (hydroxypropylcellulose) (HPC).
[10] abbreviates: dose: 200.0 mg/kg/injection, schedule: Q04DX002 (ip), vehicle: Klucel (hydroxypropylcellulose) (HPC).
Where [11] appears, read: dose: 400.0 mg/kg/injection, schedule: Q01DX009 (ip), vehicle: Klucel (hydroxypropylcellulose) (HPC).
Where [12] appears, read: dose: 400.0 mg/kg/injection, schedule: Q04DX002 (ip), vehicle: Klucel (hydroxypropylcellulose) (HPC).
[13] abbreviates: dose: 100.0 mg/kg/injection, schedule: Q04DX003 (ip), vehicle: Klucel (hydroxypropylcellulose) (HPC).
Where [14] appears, read: dose: 200.0 mg/kg/injection, schedule: Q04DX003 (ip), vehicle: Klucel (hydroxypropylcellulose) (HPC).
Where [15] appears, read: dose: 400.0 mg/kg/injection, schedule: Q04DX003 (ip), vehicle: Klucel (hydroxypropylcellulose) (HPC).
Where [16] appears, read: dose: 100.0 mg/kg/injection, schedule: Q01DX001 (ip), vehicle: saline with Tween-80.
Setting [17] is: dose: 200.0 mg/kg/injection, schedule: Q01DX001 (ip), vehicle: saline with Tween-80.
Where [18] appears, read: dose: 400.0 mg/kg/injection, schedule: Q01DX001 (ip), vehicle: saline with Tween-80.

Values joined by “and” are separate entries in the source; they are usually repeats but may differ in a detail not shown here. Identical values can stand only once. Toxic doses and inconclusive results are not listed.

Turning to `Nc1ncc(N)c(N)n1`, the T/C reads like this: (dose: 21.0 mg/kg/injection, schedule: Q01DX Z (ip), vehicle: saline) 101 % of control; (dose: 25.0 mg/kg/injection, schedule: Q01DX Z (ip), vehicle: carboxymethylcellulose (CMC)) 109 % of control; (dose: 31.0 mg/kg/injection, schedule: Q01DX Z (ip), vehicle: saline) 106 % of control; (dose: 47.0 mg/kg/injection, schedule: Q01DX Z (ip), vehicle: saline) 121 % of control; (dose: 50.0 mg/kg/injection, schedule: Q01DX001 (ip), vehicle: saline) 106 % of control; under setting [1], 103 % of control. Further, the T/C under setting [2] is 112 % of control; the T/C (dose: 117.0 mg/kg/injection, schedule: Q01DX009 (ip), vehicle: saline with Tween-80) is 116 % of control; the T/C (dose: 125.0 mg/kg/injection, schedule: Q01DX001 (ip), vehicle: carboxymethylcellulose (CMC)) was 101 % of control and 118 % of control; the T/C (dose: 125.0 mg/kg/injection, schedule: Q## X001 (ip), vehicle: carboxymethylcellulose (CMC)) was 110 % of control; the T/C under setting [3] was 103 % of control; the T/C under setting [4] was 117 % of control. The T/C (dose: 240.0 mg/kg/injection, schedule: Q04DX003 (ip), vehicle: saline) was 111 % of control; the T/C (dose: 250.0 mg/kg/injection, schedule: Q01DX001 (ip), vehicle: carboxymethylcellulose (CMC)) was 102 % of control and 108 % of control; the T/C (dose: 250.0 mg/kg/injection, schedule: Q## X001 (ip), vehicle: carboxymethylcellulose (CMC)) was 111 % of control; the T/C (dose: 360.0 mg/kg/injection, schedule: Q01DX Z (ip), vehicle: carboxymethylcellulose (CMC)) is 159 % of control; the T/C (dose: 360.0 mg/kg/injection, schedule: Q04DX003 (ip), vehicle: saline) is 108 % of control; the T/C under setting [5] is 97 % of control. Besides, the T/C runs as follows: under setting [6], 118 % of control; (dose: 500.0 mg/kg/injection, schedule: Q01DX001 (ip), vehicle: carboxymethylcellulose (CMC)) 98 % of control and 117 % of control; (dose: 500.0 mg/kg/injection, schedule: Q01DX Z (ip), vehicle: carboxymethylcellulose (CMC)) 160 % of control; (dose: 500.0 mg/kg/injection, schedule: Q## X001 (ip), vehicle: carboxymethylcellulose (CMC)) 105 % of control; (dose: 810.0 mg/kg/injection, schedule: Q01DX Z (ip), vehicle: saline) 86 % of control; (dose: 1000.0 mg/kg/injection, schedule: Q01DX001 (ip), vehicle: carboxymethylcellulose (CMC)) 102 % of control and 112 % of control. Also, the T/C (dose: 1000.0 mg/kg/injection, schedule: Q## X001 (ip), vehicle: carboxymethylcellulose (CMC)) was 98 % of control.

Take `Cc1ccc(NC(=O)Oc2ccccc2C(=O)OCc2ccccc2)cc1`: the T/C is 101 % of control under setting [7]; 88 % of control under setting [8]; 106 % of control under setting [9]; 88 % of control under setting [10]; 101 % of control under setting [11]; 107 % of control under setting [12].

`Nc1ccc(S(=O)(=O)Nc2ccccn2)cc1`: the T/C reads like this: under setting [8], 102 % of control; under setting [10], 98 % of control; under setting [12], 98 % of control.

With `COc1ccc(-c2cnc(C(N)=O)c(=O)[nH]2)cc1`, the T/C reads like this: (dose: 100.0 mg/kg/injection, schedule: Q04DX003 (ip), vehicle: saline with Tween-80) 88 % of control; (dose: 200.0 mg/kg/injection, schedule: Q04DX003 (ip), vehicle: saline with Tween-80) 95 % of control; (dose: 400.0 mg/kg/injection, schedule: Q04DX003 (ip), vehicle: saline with Tween-80) 91 % of control.

In the case of `CCN(CC)C(=O)N(CC)C(=O)CN(C)C`, the T/C is, setting by setting: under setting [2], 102 % of control; under setting [4], 102 % of control; under setting [6], 96 % of control.

In the case of `C/C(Cl)=C1\CCCC\C1=N\NC(N)=O`, the T/C is 95 % of control (dose: 100.0 mg/kg/injection, schedule: Q01DX001 (ip), vehicle: Klucel (hydroxypropylcellulose) (HPC)); 98 % of control (dose: 200.0 mg/kg/injection, schedule: Q01DX001 (ip), vehicle: Klucel (hydroxypropylcellulose) (HPC)); 102 % of control (dose: 400.0 mg/kg/injection, schedule: Q01DX001 (ip), vehicle: Klucel (hydroxypropylcellulose) (HPC)).

For the molecule `CC(C)(SCc1ccc([N+](=O)[O-])cc1)C(N)C(=O)O` (centres undefined), the T/C under setting [13] was 101 % of control, the T/C under setting [14] was 100 % of control and the T/C under setting [15] was 91 % of control.

In the case of `CC(C)NC1(C(N)=O)CCN(Cc2ccccc2)CC1`, the T/C (dose: 50.0 mg/kg/injection, schedule: Q01DX009 (ip), vehicle: Klucel (hydroxypropylcellulose) (HPC)) was 95 % of control; the T/C (dose: 50.0 mg/kg/injection, schedule: Q04DX003 (ip), vehicle: Klucel (hydroxypropylcellulose) (HPC)) was 98 % of control; the T/C under setting [7] is 100 % of control; the T/C under setting [13] is 93 % of control; the T/C under setting [9] was 104 % of control; the T/C under setting [14] is 95 % of control.

On to `Oc1cccc2ccc(N/N=C/c3ccc4cccnc4c3O)nc12`, for which the T/C was 93 % of control (dose: 100.0 mg/kg/injection, schedule: Q01DX001 (ip), vehicle: carboxymethylcellulose (CMC)); 102 % of control (dose: 200.0 mg/kg/injection, schedule: Q01DX001 (ip), vehicle: carboxymethylcellulose (CMC)); 93 % of control (dose: 400.0 mg/kg/injection, schedule: Q01DX001 (ip), vehicle: carboxymethylcellulose (CMC)).

For `CC(=O)c1ccc(Br)c([N+](=O)[O-])c1`, the T/C is 95 % of control under setting [1], 98 % of control under setting [3] and 103 % of control under setting [5].

As to `O=[N+]([O-])c1ccc(S(=O)(=O)OCc2cccc(OS(=O)(=O)c3ccc([N+](=O)[O-])cc3)c2)cc1`, the T/C was 100 % of control under setting [16]; 94 % of control under setting [7]; 100 % of control under setting [13]; 104 % of control under setting [17]; 93 % of control under setting [9]; 95 % of control under setting [14]. For the same molecule, the T/C is 102 % of control under setting [18], 107 % of control under setting [11] and 102 % of control under setting [15].

For `CC(C)(C)C12N=NCC1C(=O)C1(C(C)(C)C)OC1C2=O` (centres undefined), the T/C by setting is: under setting [16], 102 % of control; under setting [17], 97 % of control; under setting [18], 94 % of control.

For the molecule `O=C(COc1ccc(Cl)cc1Cl)Nc1ccc(-c2ccc(NC(=O)COc3ccc(Cl)cc3Cl)cc2)cc1`, the T/C reads like this: (dose: 50.0 mg/kg/injection, schedule: Q04DX002 (ip), vehicle: Klucel (hydroxypropylcellulose) (HPC)) 89 % of control; under setting [8], 89 % of control; under setting [10], 100 % of control.

In the case of `O=C(Nc1ccccc1F)OCCOc1ccc(Br)cc1`, the T/C by setting is: under setting [7], 103 % of control; under setting [9], 97 % of control; under setting [11], 123 % of control.

As for `CC[N+](C)(CC)CCOC(=O)C1C2CC3OC(=O)C1C3C2` (centres undefined), the T/C is 108 % of control under setting [2] and 112 % of control under setting [4].

Turning to `CCOC(=O)C(C#N)(CC)C1=CCCCC1` (centres undefined), the T/C is, setting by setting: under setting [7], 106 % of control; under setting [13], 97 % of control; under setting [9], 93 % of control; under setting [14], 97 % of control; under setting [11], 97 % of control; under setting [15], 102 % of control.

These data come from PubChem BioAssay AID248 (DTP/NCI, 2004).
